The values that follow are results of earlier work, collected in patent publication US8506932B2, “Tetracyclic indole derivatives as in vivo imaging agents and having peripheralbenzodiazepine receptor affinity (PBR)” (Hammersmith Imanet Limited, priority 2005, dated 2013).

The target in one data set is PBR (Homo sapiens, UniProt P30536). The conditions noted are these: stated as known limitation.
The conditions of data set [1]: stated as known limitation.

Chain of PBR (P30536 whole entry, species assumed): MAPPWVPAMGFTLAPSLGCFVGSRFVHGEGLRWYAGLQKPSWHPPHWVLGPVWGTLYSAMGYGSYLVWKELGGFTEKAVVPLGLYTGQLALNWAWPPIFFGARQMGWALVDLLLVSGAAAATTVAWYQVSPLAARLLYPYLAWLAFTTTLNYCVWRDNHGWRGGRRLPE

Take `CC[C@@H](C)N([11CH3])C(=O)c1cc2ccccc2c(-c2ccccc2Cl)n1` [(R)-[11C]PK11195]: the “specific to non-specific binding” value on PBR is “low”. Besides, the protein binding entry in data set [1] was “high”.
